System: hES cells
Assay: Induction of motor neurons from hES cell-derived embryoid bodies, quantified by immunocytochemistry
Type: cell-based, human
Details: H1 hES-derived EBs, RA 10 uM
Description: A modified version of the protocol described in Wichterle et al., “Directed Differentiation of Embryonic Stem Cells into Motor Neurons,” Cell 110:385-397 (2002), which is hereby incorporated by reference in its entirety, was used for induction and differentiation of motor neurons from hES cells (FIG. 1A). For caudalization and specification to motor neurons, 90% confluent hES cell cultures were dissociated to form embryoid bodies (EB) in suspension dishes (Ultra low cluster 6 well plates, […], Mass.). Fresh RA was added every day and fresh medium along with SHH replaced every 72 hrs. After 6-8 days, differentiation of motor neurons was induced by plating the spheres formed onto poly-ornithin/fibronectin coated plates in DMEM/F12 supplemented with N2 (Gibco), GDNF (20 ng/ml), BDNF (20 ng/ml), or neurotrophin 4 (NT4) (20 ng/ml), CNTF (20 ng/ml), B27 (1X) and 2% FBS. After 7-14 days, cultures were either fixed for immunocytochemistry or used for physiology.
Cells were stained at different stages of culture for the following: Tra 1-81 (Mouse IgG, 1:200), SSEA-4 (supernatant, mouse IgG, 1:50, DSHB), βIII-tubulin (mouse IgG; 1:400, Covance), Islet1 (supernatant, mouse IgG, 1:50, Developmental Studies Hybridoma Bank from the University of Iowa (DSHB)), Hb9 (supernatant, mouse IgG, 1:50, DSH), ChAT (Rabbit IgG, 1:200, Chemicon), desmin (Rabbit IgG, 1:200, Sigma), and GFP (mouse IgG, 1:100). […]
To determine if hES cells had the capacity to respond to the caudalizing effects of RA and the ventralizing effects of SHH to generate MNs (Wichterle et al., “Directed Differentiation of Embryonic Stem Cells into Motor Neurons,” Cell 110:385-397 (2002), which is hereby incorporated by reference in its entirety), hES cells were raised to 90% confluency before inducing them to form EBs in suspension cultures. […] After a week in a differentiated condition, the cells were fixed and the percentage of βIII-tubulin expressing neurons was determined. […]

In the case of `CC1=C(/C=C/C(C)=C/C=C/C(C)=C/C(=O)O)C(C)(C)CCC1` [RA+/SHH−, all-trans retinoic acid], the “percentage of neurons (βIII-tubulin expressing) generated from the differentiated EBs” value (8-9 days in suspension, one week differentiation with FBS/B27/BDNF/GDNF/CNTF, of total population) is reported as “around 30%”, the “percentage of βIII-tubulin expressing neurons that expressed islet-1/ChAT” value (SHH 200 nM where present, FIG. 2E) is reported as 3%-10% and the “percentage of βIII-tubulin expressing neurons that expressed Hb9” value (SHH 200 nM where present, FIG. 2F) is reported as 3%-6%.

— US8263406B2, “Enriched or purified population of motor neurons and its preparation from a population of embryonic stem cells” (Cornell Research Foundation, Inc., priority 2003, dated 2012)
